In patent US20180305345A1 (priority 2015, published 2018):

Assays:
VSVΔ51 in 786-0 cells = assay type: cell-based, human
[1] = system: VSVΔ51-resistant HT29 cells (human colon carcinoma); parameters: species or system Balb/c mice; details: in vivo

| Compound | effect on viral growth after removal of compound at various times (VSVΔ51 in 786-0 cells) | mouse survival [1] | tumor growth ([1]; mouse) |
| --- | --- | --- | --- |
| O=C1OC(c2ccccc2)C(Cl)=C1Cl (stereo not shown) [Compound 1, 3,4-dichloro-5-phenyl-2,5-dihydrofuran-2-one, reference compound] | rapid and sustained | – | – |
| O=C1C(Cl)=C(Cl)C(O)N1Cc1ccccc1 (stereo not drawn) [Compound 10, α,β-dichloro-γ-hydroxy-N-benzyl-crotonic lactam] | rapid and sustained | – | – |
| O=C1C(Cl)=C(Cl)C(O)N1CCN1CCOCC1 (stereo not shown) [Compound 28, 3,4-dichloro-5-hydroxy-1-(2-morpholinoethyl)-1H-pyrrol-2(5H)-one] | – | increased mouse survival rates | reduced tumor growth |
